Results: ChEMBL document CHEMBL1153260, “The synthesis of aminobenzazepinones as anti-phenylalanine dipeptide mimics and their use in nep inhibition” (Bioorg Med Chem Lett, 1996)

What follows are molecules tested against T1, Neprilysin (Rattus norvegicus, UniProt P07861) (assay: Compound was tested for inhibition of neutral endopeptidase (NEP).).
T1 sequence (P07861 whole entry): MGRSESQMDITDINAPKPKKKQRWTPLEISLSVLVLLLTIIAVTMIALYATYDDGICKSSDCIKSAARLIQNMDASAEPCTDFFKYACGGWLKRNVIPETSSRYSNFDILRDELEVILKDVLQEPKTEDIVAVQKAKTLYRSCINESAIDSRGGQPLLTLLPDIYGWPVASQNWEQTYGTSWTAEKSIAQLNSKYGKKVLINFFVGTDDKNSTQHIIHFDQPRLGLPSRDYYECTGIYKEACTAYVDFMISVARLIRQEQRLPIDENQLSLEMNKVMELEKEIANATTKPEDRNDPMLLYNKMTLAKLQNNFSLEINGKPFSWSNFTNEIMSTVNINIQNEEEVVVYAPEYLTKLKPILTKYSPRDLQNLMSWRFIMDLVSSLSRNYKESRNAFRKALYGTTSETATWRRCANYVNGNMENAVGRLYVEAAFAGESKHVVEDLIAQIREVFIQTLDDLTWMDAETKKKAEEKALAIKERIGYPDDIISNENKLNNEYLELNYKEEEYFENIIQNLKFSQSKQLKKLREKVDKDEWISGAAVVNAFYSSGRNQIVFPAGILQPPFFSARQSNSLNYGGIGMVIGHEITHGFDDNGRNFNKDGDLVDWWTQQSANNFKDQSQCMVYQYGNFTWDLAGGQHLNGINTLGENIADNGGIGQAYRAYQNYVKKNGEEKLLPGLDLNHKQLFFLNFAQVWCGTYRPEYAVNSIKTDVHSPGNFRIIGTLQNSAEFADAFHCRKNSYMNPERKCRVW

Row | SMILES | Ki [nM]
1 | O=C(O)C1CCCC2c3ccccc3C[C@H](NC(=O)[C@H](S)Cc3ccccc3)C(=O)N12 (stereo partly drawn) | 0.07
2 | CC(C)C[C@@H](C(=O)O)N1Cc2ccccc2C[C@H](NC(=O)[C@H](S)Cc2ccccc2)C1=O | 0.4
3 | CC(C)CC(C(=O)O)N1CCO[C@@H](c2ccccc2)[C@H](NC(=O)[C@H](S)Cc2ccccc2)C1=O (single isomer, unassigned) | 330
